These results are taken from patent US20180344725A1, “QUINOLONE CHALCONE COMPOUNDS AND USES THEREOF” (priority 2015, published 2018).

The test system of assay [1] is KB-C-1. Description: SRB-based cytotoxicity assay. The assay is classed as cell-based. The following applies: Homo sapiens, KBC-1; KB-C-1, multidrug naïve. The method, then: (§1) 1845B5 and MCF-10A non-cancer breast cell lines were cultured in DME/F12 medium supplemented with 10% fetal bovine serum, antibiotics and growth factors. […] The human small cell lung carcinoma H69 cell line and its multidrug-resistant MRP1-overexpressing isogenic H69AR cell line were purchased from ATCC. […] H69 cells grow as large multi-cell aggregates, making it difficult to accurately count cell numbers. […] The IL-6 dependent bortezomib-resistant ANBL6-BR cell line was further supplemented with 1 ng/ml of IL-6. The MCF10AT1 and MCF10CA1a cell lines are isogenic to the MCF10A cell line, and obtained from Dr. Valerie Weaver at the Center for Bioengineering and Tissue Regeneration, UCSF, CA, USA. […] The drug-resistant cells were cultured in the absence of drug for at least one passage before carrying out experiments. All cells were maintained in a humidified incubator at 37° C. […] Cell line authentication was performed using short tandem repeat (STR) profiling. […] Some wells were treated with 100 μl of 10% trichloroacetic acid (TCA) as a negative control and sham (medium with dimethyl sulfoxide; DMSO) treated cells were used as a positive control. […] TCA was removed and cells were washed with cold tap water, and plate was air-dried, followed by addition of 50 μl of 0.4% SRB staining solution to each well. After 30 minutes incubation, SRB staining solution was removed. Cells were washed with 1% acetic acid solution, and then washed with tap water to remove unbound staining solution, followed by air-drying. 200 μl of 10 mM (pH10.5) trizma base buffer was added to each well to solubilise macromolecules. […] Cell growth (inhibition) was calculated by the following formula: % cells proliferation=[(AT-CT)/(ST-CT)]×100 wherein AT=absorbance of treated cells, CT=absorbance of negative control cells, and ST=absorbance of sham treated cells. […] CI values were determined from four independent experiments.

The subject of assay [2] is H69AR. Briefly: SRB-based cytotoxicity assay. It is filed as cell-based, human. The following applies: H69AR versus SW-1271. The method, then: as §1
Assay [3] relates to KB-C-2. Briefly: SRB-based cytotoxicity assay, single and combination with paclitaxel. The following applies: KB-C-2 versus KB-C-1. The assay is classed as cell-based, human. The method, then:
as §1

For assay [4], the system named is K562. Briefly: SRB-based cytotoxicity assay. The assay is classed as cell-based. The following applies: Homo sapiens, Table 2. As for the experimental part: (§2) For (anti)proliferation assays, 4,000-5,000 cells/well of the 96-well clustered dish were incubated for 16 hours, as described previously (Hu et al., 2008; Skehan et al., 1990). After 16 hours, culture medium was replaced with fresh medium containing different dilutions of test compounds dissolved in DMSO. Some wells were treated with 100 μl of 10% trichloroacetic acid (TCA) as a negative control and sham (medium with dimethyl sulfoxide; DMSO) treated cells were used as a positive control. After 72 hours post-incubation, medium was removed and cells were fixed with 10% TCA at 4° C. for 1 hour. TCA was removed and cells were washed with cold tap water, and plate was air-dried, followed by addition of 50 μl of 0.4% SRB staining solution to each well. After 30 minutes incubation, SRB staining solution was removed. Cells were washed with 1% acetic acid solution, and then washed with tap water to remove unbound staining solution, followed by air-drying. 200 μl of 10 mM (pH10.5) trizma base buffer was added to each well to solubilise macromolecules. SRB stained macromolecules were determined at a 540 nm wavelength using an automated plate reader (Synergy H4 Hybrid Multi-Mode Microplate Reader, BioTek, Winooski, Vt.). Cell growth (inhibition) was calculated by the following formula:
(§3) % cells proliferation=[(AT−CT)/(ST−CT)]×100
(§4) wherein AT=absorbance of treated cells, CT=absorbance of negative control cells, and ST=absorbance of sham treated cells. IC50 values were calculated from sigmoidal dose-response curves generated by two independent biological replicates, with quadruplicate in each set by using Graph Pad Prism v.5.04 software. […] The combinational index (CI) was calculated as described previously (Chou 2006). If the CI values were less than, equal to or more than 1, it indicates a synergistic, additive or antagonistic effect respectively (Chou 2006). CI values were determined from four independent experiments.

The subject of assay [5] is 184B5. Description: SRB-based cytotoxicity assay. It is filed as cell-based. The following applies: Homo sapiens; 184B5 non-cancer; SRB; Table 2. The method, then:
as §2, §3, §4

Assay [6] has as its system MCF-7. Description: SRB-based cytotoxicity assay. It is filed as cell-based, human. The following applies: Homo sapiens, MCF7; MCF-7; SRB; Table 2. As for the experimental part:
as §2, §3, §4

Assay [7] concerns MDA-MB-231. Briefly: SRB-based cytotoxicity assay. It is filed as cell-based, human. The following applies: Homo sapiens; MDA-MB-231; SRB; Table 2. As for the experimental part: as §2, §3, §4
Assay [8] has as its system MDA-MB-468. Description: SRB-based cytotoxicity assay. The assay is classed as cell-based, human. The following applies: Homo sapiens; MDA-MB-468; SRB; Table 2. As for the experimental part:
as §2, §3, §4

Assay [9] has as its system MDA-MB-231 human metastatic breast cancer cells. Briefly: Anti-tumor activity in xenograft mice. It is filed as in vivo. The following applies: Tax 10 mg/kg I.V. once/week, CTR 30 mg/kg I.P. every 3 days, or Tax 5 + CTR 15 mg/kg once/week. The method, then: Five-week old female CD-1 and ATH490 (strain code 490) athymic nude mice were purchased from Charles River (Quebec, Canada). The MDA-MB-231 human metastatic breast cancer cells were obtained from the American Tissue Culture Collection (ATCC, Manassas, Va., USA). Cells were maintained under humidified conditions at 37° C. and 5% CO2 in DMEM high glucose medium (ATCC) supplemented with 10% fetal bovine serum and antibiotics.
For paclitaxel treatments, 40 mg/ml stock solution of paclitaxel (Sigma, MO) was prepared in DMSO. Just before administration to mice, the paclitaxel stock solution was diluted ten-fold in a buffer containing 10% DMSO, 12.5% Cremophor, 12.5% ethanol, and 65% saline-based diluent (0.9% sodium chloride, 5% polyethylene glycol, and 0.5% tween-80) which is defined as vehicle (Huang et al., 2006). Alanine transaminase (ALT, SUP6001-c)/Aspartate transaminase (AST, SUP6002-c) color endpoint assay kits were purchased from ID Labs Biotechnology (London, Ontario, Canada). Elevation of ALT and AST levels in serum samples was used as an indicator of liver damage/injury.
To determine the anti-tumor activity of CTR compounds in animals, a xenograft model of human breast cancer cells in athymic nude mice was established. Exponentially growing MDA-MB-231 metastatic breast cancer cells were harvested and counted for inoculation into mice. Each mouse was subcutaneously injected at the flank with 10×10^6 cells in 0.2 ml ice cold 1×PBS. When tumor size reached 4-5 mm in diameter (n=4-5 per group), mice were randomly assigned into several groups as described herein.
Animals were monitored for food and water consumption every day, and their body weights and tumor volumes were measured twice per week. Tumor volumes were measured with a digital caliper and were determined by using the following formula: ½ length×width^2. Blood samples were collected via cardiac puncture and processed further for ALT and AST measurements. The animals were then immediately euthanized by carbon dioxide. Tumors and vital organs (spleen, kidney, liver and lung) were collected and fixed in 10% buffered formalin at 4° C. overnight before being processed for paraffin embedding. The paraffin-embedded blocks were then cut into 4-5 μm thick sections. Each section of tumors and organs was stained with hematoxylin and eosin (H&E).

A word on the IC50: it is the concentration that gives 50% inhibition. Consider `CC[C@]1(O)C[C@@H]2CN(CCc3c([nH]c4ccccc34)[C@@](C(=O)OC)(c3cc4c(cc3OC)N(C)[C@H]3[C@@](O)(C(=O)OC)[C@H](OC(C)=O)[C@]5(CC)C=CCN6CC[C@]43[C@@H]65)C2)C1` [Vinblastine, reference compound], for which, in assay [1], the IC50 is 0.61 ± 0.09 nM. For the same compound, the figures for the “Resistance (fold)” value in [2] and in assay [3] were 5.82 fold and 15.20 fold, respectively.
`COc1ccccc1C(=O)/C=C/c1cc2cc(C)ccc2[nH]c1=O` [CTR-18, (E)-3-(3-(2-Methoxyphenyl)-3-oxoprop-1-enyl)-6-methylquinolin-2(1H)-one]: the IC50 in assay [4] was found to be 210 ± 20 nM; in assay [5] it was 3890 nM; in assay [6] it was 120 nM; in [7] it was 930 nM; in assay [8], 80 nM. The “tumor size (volume)” value in [9] (Day 0) stood at 92.51 mm^3; in assay [9] (Day 6), 111.09 mm^3; in assay [9] (Day 14) it was 138.10 mm^3; in assay [9] (Day 17), 145.48 mm^3; in assay [9] (Day 20), 166.84 mm^3; in assay [9] (Day 24), 143.78 mm^3. The figures for the “tumor size (volume)” value in assay [9] (Day 27) and in assay [9] (Day 30) were 141.52 mm^3 and 253.37 mm^3, respectively.
On to `COc1ccc2cc(/C=C/C(=O)c3ccccc3OC)c(=O)[nH]c2c1` [CTR-19, (E)-7-Methoxy-3-(3-(2-methoxyphenyl)-3-oxoprop-1-enyl) quinolin-2(1H)-one], for which the IC50 was 950 ± 650 nM in assay [4]; 3940 nM in assay [5]; 1930 nM in assay [6]; 5110 nM in assay [7]; 1910 nM in [8]. In addition, the “tumor size (volume)” value in assay [9] (Day 0) was found to be 92.51 mm^3; in assay [9] (Day 6), 84.79 mm^3; in assay [9] (Day 14), 99.68 mm^3; in assay [9] (Day 17) it was 92.27 mm^3; in [9] (Day 20), 115.39 mm^3; in assay [9] (Day 24), 124.76 mm^3. Moreover, the “tumor size (volume)” value in [9] (Day 27) is on record as 143.62 mm^3; in assay [9] (Day 30) it was 200.77 mm^3.
